Measured values as given in patent US12527770B2 (Teikoku Pharma USA, Inc., priority 2016, dated 2026).
Read-outs that look alike come from different tables or passages of the source.

Legend:
[1] = test system: patients after Austin bunionectomy surgery; conditions: for use of rescue medication (oxycodone), Mean (SD): n = 43
Experimental: Each transdermal delivery device was applied to the subject between 10 hours and 14 hours before each patient underwent Austin bunionectomy surgery with standard intraoperative anesthesia.
Pain was evaluated in patients at times from immediately after surgery through 72 hours after surgery using the Pain Intensity Numeric Rating Scale (NRS) and Summed Pain Intensity (NRSSPI). Pain was also evaluated based on the time and first use of rescue pain medication as well as total use of rescue medication.

- solubility of dexmedetomidine (in Duro-Tak 87-2979): less than 2%
- solubility of dexmedetomidine (in Duro-Tak 387/87-2353): 10-15%
- solubility of dexmedetomidine (in hydroxyl functionalized acrylate polymer): less than 1%
- solubility of dexmedetomidine (in levulinic acid): ~60%
- solubility of dexmedetomidine (in oleic acid): ~40%
Structure (SMILES): Cc1cccc([C@H](C)c2cnc[nH]2)c1C [Dexmedetomidine]
- use of rescue medication (oxycodone), Mean (SD) ([1]; 0 to 24 Hours after Surgery): 23.5 (11.98)
- use of rescue medication (oxycodone), Mean (SD) ([1]; 0 to 48 Hours after Surgery): 37.5 (22.74)
- use of rescue medication (oxycodone), Mean (SD) ([1]; 0 to 72 Hours after Surgery): 46.4 (30.80)
- proportion of patients requesting rescue medication ([1]; first six hours after surgery, vs placebo): lower proportion
- pain intensity difference between dexmedetomidine and placebo ([1]; over a 4-fold mean plasma dexmedetomidine concentration range): constant
- pain rating (Numerical Rating Scale) compared to placebo ([1]; through 72 hours after surgery, 2×3 cm^2 patch): lower pain rating
- frequency of requests for rescue medication ([1]; vs placebo): less frequently
